Paper PMC9860980, “Pharmacokinetics and Pharmacodynamics (PK/PD) of Corallopyronin A against Methicillin-Resistant Staphylococcus aureus” (Pharmaceutics, 2022)

Experiments:
[1] = tested on: S. aureus strain ATCC 33591 (MRSA-strain); conditions: 5 mg/kg IP TID; 24 h post infection
Procedure: Organ samples were thawed and homogenized using a Polytron tissue homogenizer after addition of 3 mL isotonic sodium chloride solution. First, a calibration curve was prepared by spiking different concentrations of CorA into the respective matrix from CD-1 mice. Caffeine was used as an internal standard. In addition, quality control samples (QCs) were prepared for CorA for every matrix. For PD samples, calibration curve and QCs were prepared for levofloxacin using the same protocol. The following extraction procedure was used: 50 µL of a sample (calibration sample, QCs, PK or PD sample) was extracted with 20 µL of acetic acid in water (10/90 (v/v)) and 30 µL acetonitrile for 5 min at 800 rpm on an Eppendorf MixMate® vortex mixer. Then, samples were spun down for 20 min at 4 °C and 4000 rpm and supernatants were transferred to new Greiner 96-well V-bottom plates. Samples were analyzed using an Agilent 1290 Infinity II HPLC system (Waldbronn, Germany) coupled to an AB Sciex QTrap6500plus mass spectrometer (Darmstadt, Germany). LC conditions were as follows: column: Agilent Zorbax Exlipse Plus C18, 50 × 2.1 mm, 1.8 µm; temperature: 30 °C; injection volume: 5 µL per sample; flow rate: 800 µL/min. Samples were run under buffered conditions: A: 95% water + 5% acetonitrile + 5 mM ammonium acetate + 40 µL/L acetic acid; B: 95% acetonitrile + 5% water + 5 mM ammonium acetate + 40 µL/L acetic acid. The gradient was as follows: 99% A at 0 min, 99% A until 0.1 min, 99–0% A from 0.1 min to 4.0 min, 0% A until 4.5 min. Mass transitions for controls and compounds are depicted in Table S1. Peaks of PK samples were quantified using the calibration curve. The accuracy of the calibration curve was determined using QCs independently prepared on different days. PK parameters were determined using a non-compartmental analysis with PKSolver.
Inocula were prepared as described previously with the modification that isotonic sodium chloride solution was used instead of PBS [25]. For the neutropenic thigh and the neutropenic lung infection model the S. aureus strain ATCC 33591 (MRSA-strain) was used. For the neutropenic lung infection model an inoculum of 2 × 10^9 cfu/mL was used. For the neutropenic thigh infection model an inoculum of 7 × 10^5 cfu/mL was used.
The model was conducted as described previously. In brief, the following groups were used: (1) inoculum control group with terminal endpoint at 2 h post infection to determine baseline inoculum in vivo; (2) vehicle-treated group receiving 20 mg/kg SC tramadol and vehicle (PEG400/PBS (80:20 (v/v)); (3) levofloxacin group 5 mg/kg IP three times a day (TID) (t = 2, 6 and 10 h post infection); (4) CorA 60 mg/kg IP TID (t = 2, 6 and 10 h post infection) and (5) CorA 100 mg/kg IP BID (t = 2 and 6 h post infection). The endpoint for groups no. 2–5 was 24 h post infection. A solution of […].

[2] = tested on: S. aureus strain ATCC 33591 (MRSA-strain); assay: Neutropenic lung infection model with MRSA; format: in vivo, Staphylococcus aureus; conditions: 100 mg/kg IP (t = 2 h post infection); 24 h post infection
Procedure: Female, 8-week-old CD-1 mice (Charles River, Sulzfeld, Germany) were used (n = 6 animals per group). Animals were rendered neutropenic by administration of 150 mg/kg and 100 mg/kg cyclophosphamide IP on days -4 and -1, respectively. On the day of infection (day 0), mice received 15 µL of the inoculum administered via an Aeroneb® nebulizer device (Kent Scientific, Torrington, CT, USA) under anesthesia (100 mg/kg ketamine and 10 mg/kg xylazine). Mice were treated with (I) vehicle IP (PEG400/PBS), (II) with levofloxacin at 100 mg/kg IP (t = 2 h post infection, positive control group), (III) CorA at 60 mg/kg IP TID (t = 2, 5 and 9 h post infection) or (IV) CorA at 60 mg/kg IP (t = 2 h post infection) and 100 mg/kg SC BID (t = 5 and 9 h post infection).
Twenty-four hours after infection, mice were euthanized, blood was removed from the heart and lungs were aseptically removed. Whole blood was collected into Eppendorf (Hamburg, Germany) tubes coated with 0.5 M EDTA, immediately spun down at 13,000 rpm for 10 min at 4 °C, the plasma transferred into a new Eppendorf tube and stored at −80 °C until analysis. Organs were homogenized in isotonic sodium chloride solution and plated onto blood agar plates in duplicates in serial dilutions and incubated at 37 °C for 24 h.

`C[C@H]1COc2c(N3CCN(C)CC3)c(F)cc3c(=O)c(C(=O)O)cn1c23` [Levofloxacin, reference compound] was tested, and the “bacterial burden in thigh tissue” value [1] was “significant reduction”, the “reduction of bacterial burden in lung tissue compared to the vehicle-treated group” value [1] was “approximately 2 log10-units” and the “reduction in bacterial burden in lung tissue” value [2] was “more than 2 log10-units”.
